One experiment addresses hNAMPT protein (Homo sapiens (Human), UniProt P43490). The experiment is described as follows: NAMPT enzyme assay (TR-FRET/HTRF with BodiPY ligand). In kind it is binding. Particulars: for inhibition at 1 µM: NAMPT inhibition at compound concentration 1 μM, read-out: Percent Inhibition; for IC50: NAMPT inhibition, IC50 range class. The method in brief:
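Ligand displacement by TR-FRET: BodiPY emission (520 nm) over terbium (486 nm) after 320 nm excitation. Compound, BodiPY ligand, hNAMPT and anti-6His-Tb incubated 1 h at room temperature, dark, at pH 7.5. Percent inhibition computed versus DMSO; concentration-response curves fitted for IC50.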

A further experiment deals with PC3 cells. Briefly: PC3 growth inhibition (Cell-titer glo, 72 hours). In kind it is cell-based. Particulars: Homo sapiens, PC-3, 72 h, read-out: Percent Viability, PC3 cells, compound concentration 1.667 μM, 72 hours. Summed up: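 After 72 h compound treatment in AIM serum-free medium (37 °C, 5% CO2), viability of overnight-plated PC3 cells (8×10^4 cells/ml, RPMI1640-maintained) is read by CellTiter-Glo luminescence versus DMSO. Curves give GI50, LD50 or single-concentration % remaining viability.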

Among the data in patent US10323018B2 (Millennium Pharmaceuticals, Inc., priority 2015, dated 2019) are inhibition, IC50 and viability values, retold here.

By inhibition is commonly meant how much of the control response was suppressed. The term IC50 denotes the concentration at which inhibition is half-maximal. A low value points to greater potency.

SMILES strings stand for the structures. Some results are limits rather than exact numbers.

Sequence of hNAMPT protein (P43490 whole entry): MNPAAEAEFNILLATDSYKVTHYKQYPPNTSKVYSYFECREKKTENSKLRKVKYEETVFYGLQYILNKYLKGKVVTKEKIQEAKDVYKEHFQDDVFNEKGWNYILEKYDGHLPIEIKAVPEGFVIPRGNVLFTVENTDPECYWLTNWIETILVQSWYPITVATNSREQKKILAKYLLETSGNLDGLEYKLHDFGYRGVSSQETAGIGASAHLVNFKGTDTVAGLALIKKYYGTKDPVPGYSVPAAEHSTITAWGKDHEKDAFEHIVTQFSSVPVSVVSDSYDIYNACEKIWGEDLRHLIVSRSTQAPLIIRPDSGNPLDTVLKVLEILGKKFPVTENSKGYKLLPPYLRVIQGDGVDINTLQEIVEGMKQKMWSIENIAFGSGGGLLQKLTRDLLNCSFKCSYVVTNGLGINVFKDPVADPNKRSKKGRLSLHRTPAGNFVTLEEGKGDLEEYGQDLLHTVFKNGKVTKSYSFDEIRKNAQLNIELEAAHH

For the compound `CCOc1cc(-c2ccc(C)nc2)nc2cc(C(=O)NCc3nc4cnccc4[nH]3)ccc12` [Compound I-167, 4-ethoxy-N-(1H-imidazo[4,5-c]pyridin-2-ylmethyl)-2-(6-methylpyridin-3-yl)quinoline-7-carboxamide], at hNAMPT protein, the inhibition at 1 µM is more than 99% and the IC50 is less than 10 nM. The viability at 1.667 µM in the experiment with PC3 cells is 2%.

Turning to `CCOc1cc(-c2ccc(F)c(F)c2)nc2cc(C(=O)NCCCc3ncc[nH]3)ccc12` [Compound I-52, 2-(3,4-difluorophenyl)-4-ethoxy-N-[3-(1H-imidazol-2-yl)propyl]quinoline-7-carboxamide], at hNAMPT protein, the inhibition at 1 µM amounted to 99% and the IC50 was less than 10 nM. In addition, the viability at 1.667 µM in the experiment on PC3 cells is 4%.

Consider `CCOc1cc(-c2ccc(C)nc2OC)nc2cc(C(=O)NCCCc3ccn[nH]3)ccc12` [Compound I-104, 4-ethoxy-2-(2-methoxy-6-methylpyridin-3-yl)-N-[3-(1H-pyrazol-5-yl)propyl]quinoline-7-carboxamide], for which, on hNAMPT protein, the inhibition at 1 µM is 95% and the IC50 was 10 to 50 nM. In addition, the viability at 1.667 µM in the experiment on PC3 cells amounted to 2%.

Take `CC(C)Cc1nc(-c2ccc(Cl)cc2)nc2cc(C(=O)NCCCc3ncc[nH]3)ccc12` [Compound I-21, 2-(4-chlorophenyl)-N-[3-(1H-imidazol-2-yl)propyl]-4-isobutylquinazoline-7-carboxamide]: at hNAMPT protein, the inhibition at 1 µM amounted to 99% and the IC50 fell in the range of 10 to 50 nM. Besides, the viability at 1.667 µM in the experiment with PC3 cells came to 0%.

As for `CCOc1cc(-c2ccc(OC)nc2)nc2cc(C(=O)NCCCc3ccn[nH]3)ccc12` [Compound I-154, 4-ethoxy-2-(6-methoxypyridin-3-yl)-N-[3-(1H-pyrazol-5-yl)propyl]quinoline-7-carboxamide], on hNAMPT protein, the inhibition at 1 µM worked out at 96% and the IC50 was in the range of 10 to 50 nM. Besides, the viability at 1.667 µM in the experiment with PC3 cells turned out to be 3%.

Consider `CCOc1cc(-c2ccc(F)cc2)nc2cc(C(=O)NCCc3cc(N)[nH]n3)ccc12` [Compound I-134, N-[2-(5-amino-1H-pyrazol-3-yl)ethyl]-4-ethoxy-2-(4-fluorophenyl)quinoline-7-carboxamide], for which, on hNAMPT protein, the inhibition at 1 µM amounted to 93% and the IC50 fell in the range of 10 to 50 nM. The viability at 1.667 µM in the experiment with PC3 cells stood at 3%.

As for `COCCOc1cc(-c2ccc(F)cc2)nc2cc(C(=O)NCCCc3cc[nH]n3)ccc12` [Compound I-120, 2-(4-fluorophenyl)-4-(2-methoxyethoxy)-N-[3-(1H-pyrazol-3-yl)propyl]quinoline-7-carboxamide], at hNAMPT protein, the inhibition at 1 µM is 94% and the IC50 lay in the range of 10 to 50 nM. Besides, the viability at 1.667 µM in the experiment with PC3 cells turned out to be 2%.

For `CCOc1cc(-c2ccc(F)cc2)nc2cc(C(=O)NCCCc3nnc(N)[nH]3)ccc12` [Compound I-220, N-[3-(5-amino-4H-1,2,4-triazol-3-yl)propyl]-4-ethoxy-2-(4-fluorophenyl)quinoline-7-carboxamide], on hNAMPT protein, the inhibition at 1 µM was determined as 92% and the IC50 lay within 50 to 100 nM. For the same compound, the viability at 1.667 µM with PC3 cells is 2%.

Regarding `CCOc1cc(-c2ccncc2C)nc2cc(C(=O)NCCCc3nnc[nH]3)ccc12` [Compound I-158, 4-ethoxy-2-(3-methylpyridin-4-yl)-N-[3-(4H-1,2,4-triazol-3-yl)propyl]quinoline-7-carboxamide], at hNAMPT protein, the inhibition at 1 µM stood at 97% and the 50% inhibitory concentration (IC50) is 10 to 50 nM. Moreover, in the experiment with PC3 cells, the viability at 1.667 µM is 1%.

As to `CCOc1cc(-c2ccc(F)cc2)nc2cc(C(=O)NCc3ccn4ncnc4c3)ccc12` [Compound I-130, 4-ethoxy-2-(4-fluorophenyl)-N-([1,2,4]triazolo[1,5-a]pyridin-7-ylmethyl)quinoline-7-carboxamide], on hNAMPT protein, the inhibition at 1 µM came to 100% and the concentration for half-maximal inhibition (IC50) is less than 10 nM. For the same compound, the viability at 1.667 µM in the experiment on PC3 cells was 2%.

Turning to `CCOc1nc(-c2ccc(F)cc2)nc2cc(C(=O)NCc3ccc4nccn4c3)ccc12` [Compound I-34, 4-ethoxy-2-(4-fluorophenyl)-N-(imidazo[1,2-a]pyridin-6-ylmethyl)quinazoline-7-carboxamide], on hNAMPT protein, the inhibition at 1 µM came to 97% and the IC50 is less than 10 nM. In addition, the viability at 1.667 µM with PC3 cells is 1%.

`COCCOc1cc(-c2ccnc(C)c2)nc2cc(C(=O)NCc3ccn4ncnc4c3)ccc12` [Compound I-69, 4-(2-methoxyethoxy)-2-(2-methylpyridin-4-yl)-N-([1,2,4]triazolo[1,5-a]pyridin-7-ylmethyl)quinoline-7-carboxamide]: at hNAMPT protein, the inhibition at 1 µM is 86% and the IC50 is more than 100 nM. In addition, in the experiment with PC3 cells, the viability at 1.667 µM was found to be 4%.

As to `CCOc1c(F)c(-c2ccc(F)cc2)nc2cc(C(=O)NCCCc3cnn[nH]3)ccc12` [Compound I-73, 4-ethoxy-3-fluoro-2-(4-fluorophenyl)-N-[3-(1H-1,2,3-triazol-4-yl)propyl]quinoline-7-carboxamide], at hNAMPT protein, the inhibition at 1 µM came to 100% and the IC50 was less than 10 nM. Also, the viability at 1.667 µM in the experiment with PC3 cells was found to be 1%.

On to `CCc1nc(-c2ccc(Cl)s2)nc2cc(C(=O)NCCCc3ncc[nH]3)ccc12` [Compound I-22, 2-(5-chloro-2-thienyl)-4-ethyl-N-[3-(1H-imidazol-2-yl)propyl]quinazoline-7-carboxamide], for which, on hNAMPT protein, the inhibition at 1 µM was more than 99% and the IC50 lay in the range of 10 to 50 nM. In the experiment with PC3 cells, the viability at 1.667 µM was 1%.

In the case of `CCOc1nc(-c2ccc(F)cc2)nc2cc(C(=O)NCCCc3cncnc3)ccc12` [Compound I-19, 4-ethoxy-2-(4-fluorophenyl)-N-[3-(pyrimidin-5-yl)propyl]quinazoline-7-carboxamide], at hNAMPT protein, the inhibition at 1 µM was more than 99% and the IC50 is less than 10 nM. Also, the viability at 1.667 µM in the experiment on PC3 cells worked out at 1%.

As to `CCOc1nc(-c2ccc(Cl)s2)nc2cc(C(=O)NCc3ccc4nccn4c3)ccc12` [Compound I-28, 2-(5-chloro-2-thienyl)-4-ethoxy-N-(imidazo[1,2-a]pyridin-6-ylmethyl)quinazoline-7-carboxamide], at hNAMPT protein, the inhibition at 1 µM came out at 99% and the IC50 is less than 10 nM. For the same compound, the viability at 1.667 µM in the experiment with PC3 cells worked out at 1%.

Turning to `CCOc1cc(-c2ccc(F)cc2)nc2cc(C(=O)NCCc3cncn3C)ccc12` [Compound I-2, 4-ethoxy-2-(4-fluorophenyl)-N-[2-(1-methyl-1H-imidazol-5-yl)ethyl]quinoline-7-carboxamide], at hNAMPT protein, the inhibition at 1 µM was more than 99% and the IC50 is less than 10 nM. Besides, the viability at 1.667 µM in the experiment with PC3 cells came out at 2%.

Consider `CCOc1cc(-c2cc(F)ccc2OC)nc2cc(C(=O)NCc3nc4cnccc4n3C)ccc12` [Compound I-179, 4-ethoxy-2-(5-fluoro-2-methoxyphenyl)-N-[(1-methyl-1H-imidazo[4,5-c]pyridin-2-yl)methyl]quinoline-7-carboxamide], for which, at hNAMPT protein, the inhibition at 1 µM amounted to 95% and the IC50 is 50 to 100 nM. Further, the viability at 1.667 µM with PC3 cells was determined as 2%.

Consider `CCOc1cc(-c2ccc(C)nc2)nc2cc(C(=O)NCCc3[nH]nnc3C)ccc12` [Compound I-77, 4-ethoxy-2-(6-methylpyridin-3-yl)-N-[2-(4-methyl-1H-1,2,3-triazol-5-yl)ethyl]quinoline-7-carboxamide], for which, on hNAMPT protein, the inhibition at 1 µM came out at 97% and the IC50 lay within 10 to 50 nM. In addition, the viability at 1.667 µM in the experiment with PC3 cells is 1%.

On to `CCOc1cc(-c2ccc(F)cc2)nc2cc(C(=O)NCCCc3ccnnc3)ccc12` [Compound I-45, 4-ethoxy-2-(4-fluorophenyl)-N-[3-(pyridazin-4-yl)propyl]quinoline-7-carboxamide], for which, at hNAMPT protein, the inhibition at 1 µM is 100% and the IC50 is less than 10 nM. The viability at 1.667 µM with PC3 cells came to 8%.

On to `CCOc1c(F)c(-c2ccc(F)cc2)nc2cc(C(=O)NCCCc3nnc[nH]3)ccc12` [Compound I-78, 4-ethoxy-3-fluoro-2-(4-fluorophenyl)-N-[3-(4H-1,2,4-triazol-3-yl)propyl]quinoline-7-carboxamide], for which, on hNAMPT protein, the inhibition at 1 µM was 99% and the IC50 was less than 10 nM. Further, the viability at 1.667 µM in the experiment with PC3 cells came out at 2%.

`CCCc1cc(OCC)c2ccc(C(=O)NCCCc3ncc[nH]3)cc2n1` [Compound I-226, N-(3-(1H-imidazol-2-yl)propyl)-4-ethoxy-2-propylquinoline-7-carboxamide]: on hNAMPT protein, the inhibition at 1 µM is 86% and the IC50 is more than 100 nM. Also, in the experiment on PC3 cells, the viability at 1.667 µM is 14%.

As to `CCOc1cc(-c2cnc(Cl)cc2C)nc2cc(C(=O)NCCCc3nnc[nH]3)ccc12` [Compound I-211, 2-(6-chloro-4-methylpyridin-3-yl)-4-ethoxy-N-[3-(4H-1,2,4-triazol-3-yl)propyl]quinoline-7-carboxamide], at hNAMPT protein, the inhibition at 1 µM is 50% and the IC50 is more than 100 nM. For the same compound, the viability at 1.667 µM with PC3 cells was 3%.

With `CCNc1cc(-c2ccc(F)cc2)nc2cc(C(=O)NCCCc3nnc[nH]3)ccc12` [Compound I-151, 4-(ethylamino)-2-(4-fluorophenyl)-N-[3-(4H-1,2,4-triazol-3-yl)propyl]quinoline-7-carboxamide], on hNAMPT protein, the inhibition at 1 µM came to 61% and the half-inhibitory concentration (IC50) is more than 100 nM. Moreover, in the experiment with PC3 cells, the viability at 1.667 µM came out at 3%.

As for `CCOc1cc(-c2ccc(=O)n(C)c2)nc2cc(C(=O)NCCCc3[nH]nnc3C)ccc12` [Compound I-97, 4-ethoxy-2-(1-methyl-6-oxo-1,6-dihydropyridin-3-yl)-N-[3-(4-methyl-1H-1,2,3-triazol-5-yl)propyl]quinoline-7-carboxamide], on hNAMPT protein, the inhibition at 1 µM was more than 99% and the IC50 fell in the range of 10 to 50 nM. The viability at 1.667 µM with PC3 cells turned out to be 2%.
